The record followed here is US20140272067A1, “ORGANIC COMPOUNDS” (Givaudan S.A., priority 2011, published 2014).

Common to all, as to assay type: in vivo
A short description of assay [1]: Taste panel: umami and salt intensity of solution B vs reference solution A (Example 2). The following applies: 10 ppm compound in 0.5% NaCl and 0.03% MSG vs same solution without compound; scale -3 (much lower than base) to 3 (much higher than base); average of 4 flavourists. Here is the method: Two solutions were prepared: • A a solution of 0.5% NaCl and 0.03% MSG • B a solution of 0.5% NaCl and 0.03% MSG and 10 ppm Example 1 compound
The samples were tasted by a small group of flavourists (2 male, 2 female, aged between 30 and 60). The intensity of the umami and salt taste of solution B was compared with that of the reference (solution A) and rated according to the following intensity scale: • Taste effect much lower than base: −3 • Taste effect lower than base: −2 • Taste effect slightly lower than base: −1 • Taste effect same as base: 0 • Taste effect slightly higher than base: 1 • Taste effect higher than base: 2 • Taste effect much higher than base: 3
The results (average of ratings given by the flavourists) were: […]

Assay [2] can be described thus: Taste panel: bouillon with compound vs reference bouillon (Example 4). The following applies: 200 ppm in bouillon (32 g mix in 1 L boiling water); 4 flavourists. The procedure:
A bouillon mix was prepared from 155.0 g of sodium chloride, 157.0 g of dextrose monohydrate (ex Tapioca), 0.2 g of celery oleoresin, 0.3 g of oleoresin turmeric Vegex, 0.2 g of oleoresin coriander seed, 444.8 g maltodextrin 5-8 DE, 40.0 g vegetable oil soya bean refined, 30.0 g yeast standard light, 4.0 g of onion powder, 4.0 g of garlic powder, 0.5 g of white pepper and 164.0 g of potato starch.
32 g of the well-mixed ingredients was added to 1 L of boiling water and stirred until completely dissolved.
A small group of flavourists (2 male, 2 female) compared the taste of the reference bouillon with that of a batch of the same bouillon containing 200 ppm of N-methyl-D-aspartic acid.

Assay [3] is described as follows: Taste panel: enhancement effect on NaCl, MSG and ribonucleotides taste (Example 3). The following applies: 5-10 flavourists. The procedure:
Six solutions were prepared: • A a solution of 0.5% NaCl • B a solution of 0.5% NaCl and 0.03% MSG • C a solution of 0.5% NaCl and 0.015% ribonucleotides • D a solution of 0.5% NaCl and 50 ppm Example 1 compound • E a solution of 0.5% NaCl and 0.03% MSG and 50 ppm Example 1 compound • F a solution of 0.5% NaCl and 0.015% ribonucleotides and 50 ppm Example 1 compound
The samples were tasted by a group of 5-10 flavourists aged between 30 and 60. The taste of solution D is compared with that of A to determine the enhancement effect of Example 1 compound on NaCl. Similarly, solution E is compared with solution B and solution F with solution C to determine the enhancement effect of Example 1 compound on MSG and ribonucleotides respectively. The effect is marked between 0 and 10, the greater the value the greater the effect.

In the case of `CNC(CCC(=O)O)C(=O)O` (racemic) [N-methyl-DL-glutamic acid, N-methyl-DL-glutamic Acid], in assay [1], the “Intensity Taste Salt (NaCl)” value is 1.00 and the “Intensity Taste Umami” value is recorded as 0.00.

Turning to `CN[C@H](CC(=O)O)C(=O)O` [N-methyl-D-aspartic acid, N-methyl-D-aspartic Acid], in assay [1], the “Intensity Taste Salt (NaCl)” value stood at 0.50 and the “Intensity Taste Umami” value is 0.50. In assay [2], the “Salivating effect of test bouillon vs reference bouillon” value was “slightly more salivating” and the “Umami taste of test bouillon vs reference bouillon” value is on record as “slightly more umami”. The “NaCl Taste” value in assay [3] (50 ppm compound in 0.5% NaCl (solution D) vs solution A (reference 0.0), marked 0 to 10, the greater the value the greater the effect) is listed as 0.7. Also, the Ribo taste in assay [3] (50 ppm compound in 0.5% NaCl and 0.015% ribonucleotides (solution F) vs solution C (reference 5.0), marked 0 to 10) was 6.3. Moreover, the MSG taste in assay [3] (50 ppm compound in 0.5% NaCl and 0.03% MSG (solution E) vs solution B (reference 5.0), marked 0 to 10) was determined as 5.3.
